Measurements taken from patent US11827628B2, “Compositions and methods for inhibition of the JAK pathway” (Rigel Pharmaceuticals, Inc., priority 2005, dated 2023).
Read-outs that look alike come from different tables or passages of the source. Values belong to the compound of their own block, whether it stands above or below them.

Test system: IL-4 stimulated expression of CD23 in human Ramos B cells (JAK-1 and JAK-3)
Assay: Assay for Ramos B-Cell Line Stimulated with IL-4 (CD23 upregulation, FACS)
Type: cell-based
Details: read-out: IC50, Example 41
Summary of the method: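 Compound effect on IL-4-driven JAK1/JAK3 signalling is gauged as CD23 surface expression, measured by FACS after 20-24 h of stimulation with IL-4 at 50 units/mL final. A 1 h compound pre-treatment at 37 °C precedes stimulation, and IC50 is derived from the results.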

[1] = Ramos B-cell line stimulated with IL-4, CD23 expression by FACS
[2] = Homo sapiens, Ramos, Ramos B cells stimulated with IL-4, CD23 expression by FACS
[3] = Ramos B cells stimulated with IL-4, CD23 expression by FACS
[4] = Homo sapiens, Ramos, Ramos B-cell line stimulated with IL-4, CD23 expression by FACS

IC50 [1]: 3760 nM
Compound: Cc1cc(COc2ccc(Nc3nc(Nc4ccc(C)c(S(=O)(=O)NC(=O)C(C)C)c4)ncc3F)cc2)no1 [Compound I-229, 5-Fluoro-N4-[4-(5-methylisoxazol-3-yl)methyleneoxyphenyl]-N2-(4-methyl-3-(2-methylpropionyl)aminosulfonylphenyl)-2,4-pyrimidinediamine]

IC50 [2]: 28.1 nM
Compound: CNS(=O)(=O)c1ccc(Nc2ncc(F)c(Nc3ccc4c(c3)NC(=O)C(C)(C)O4)n2)cc1OC [VII-37, N4-(2,2-Dimethyl-3-oxo-4H-benz[1,4]oxazin-6-yl)-5-fluoro-N2-[4-(N-methyl)aminosulfonyl-3-methoxyphenyl]-2,4-pyrimidinediamine]

IC50 [1]: 673 nM
Compound: Cc1cc(COc2ccc(Nc3nc(Nc4cccc(S(=O)(=O)NCc5oc(=O)oc5C(C)(C)C)c4)ncc3F)cc2)no1 [Compound I-250, N2-{3-[(N-5-t-Butyl-1,3-dioxolene-2-one-4-yl)methylene]aminosulfonylphenyl}-5-fluoro-N4-[4-(5-methylisoxazol-3-yl)methyleneoxyphenyl]-2,4-pyrimidinediamine]

IC50 [2]: 93.2 nM
Compound: NS(=O)(=O)c1ccc(Nc2ncc(F)c(Nc3cccc(-c4cnco4)c3)n2)cc1 [IV-3, N2-(4-Aminosulfonylphenyl)-5-fluoro-N4-[3-(1,3-oxazol-5-yl)phenyl]-2,4-pyrimidinediamine]

IC50 [2]: 455 nM
Compound: NC(=O)NCCc1ccc(Nc2nc(Nc3cccc(S(N)(=O)=O)c3)ncc2F)cc1 [VI-72, N4-{4-[2-(Aminocarbonylamino)ethyl]phenyl}-N2-(3-aminosulfonylphenyl)-5-fluoro-2,4-pyrimidinediamine]

IC50 [3]: 696 nM
Compound: COc1ccc(CN2C(=O)C(C)Oc3ccc(Nc4nc(Nc5cccc(S(N)(=O)=O)c5)ncc4F)cc32)cc1 (racemic) [Compound V-5, Racemic N2-(3-Aminosulphonylphenyl)-5-fluoro-N4-[2-methyl-3-oxo-4-(4-methoxybenzyl)-benz[1,4]oxazin-6-yl]-2,4-pyrimidinediamine]

IC50 [2]: 623 nM
Compound: O=S(=O)(c1ccc(Nc2ncc(F)c(Nc3ccc4c(c3)OCCO4)n2)cc1)N1CCCC1 [VII-24, N4-(3,4-Ethylenedioxyphenyl)-5-fluoro-N2-[4-(pyrrolidin-1-ylsulfonyl)phenyl]-2,4-pyrimidinediamine]

IC50 [4]: 2950 nM
Compound: Cc1ccc(Nc2ncc(F)c(Nc3ccc(OCC(N)=O)c(CO)c3)n2)cc1S(N)(=O)=O [Compound I-106, N4-(4-Aminocarbonylmethoxy-3-hydroxymethylphenyl)-N2-(3-aminosulfonyl-4-methylphenyl)-5-fluoro-2,4-pyrimidinediamine]

IC50 [2]: 3170 nM
Compound: C#CCNS(=O)(=O)c1cccc(Nc2nc(Nc3cccc(S(N)(=O)=O)c3)ncc2F)c1 [VI-81, N2-(3-Aminosulfonylphenyl)-5-fluoro-N4-[3-(prop-2-ynylaminosulfonyl)phenyl]-2,4-pyrimidinediamine]

IC50 [4]: 1510 nM
Compound: NC(=O)COc1ccc(Nc2nc(Nc3cccc(S(N)(=O)=O)c3)ncc2F)cc1CO [Compound I-107, N4-(4-Aminocarbonylmethoxy-3-hydroxymethylphenyl]-N2-(3-aminosulfonylphenyl)-5-fluoro-2,4-pyrimidinediamine]

IC50 [2]: 1040 nM
Compound: NS(=O)(=O)c1ccc(Nc2ncc(F)c(Nc3ccc(C(=O)N4CCSCC4)cc3)n2)cc1 [IX-36, N2-(4-Aminosulfonylphenyl)-5-fluoro-N4-[4-(4-thiomorpholinyl)carbonylphenyl]-2,4-pyrimidinediamine]

IC50 [2]: 179 nM
Compound: CNS(=O)(=O)c1ccc(Nc2ncc(F)c(Nc3ccc(OC)c(OC)c3)n2)cc1OC [IX-50, N4-(3,4-Dimethoxyphenyl)-5-fluoro-N2-[4-(N-methyl)aminosulfonyl-3-methoxyphenyl]-2,4-pyrimidinediamine]

IC50 [3]: 539 nM
Compound: CCNC(=O)NCCc1ccc(Nc2nc(Nc3ccc(S(N)(=O)=O)cc3)ncc2F)cc1 [III-122, N2-(4-aminosulfonyl)phenyl-N4-[4-(2-ethylaminocarbonylamino)ethyl]phenyl-5-fluoro-2,4-pyrimidinediamine]

IC50 [2]: 240 nM
Compound: CNS(=O)(=O)c1ccc(Nc2ncc(F)c(Nc3ccc(OC(F)(F)F)c(Cl)c3)n2)cc1OC [IX-53, N4-(3-Chloro-4-trifluoromethoxyphenyl)-5-fluoro-N2-[4-(N-methyl)aminosulfonyl-3-methoxyphenyl]-2,4-pyrimidinediamine]

IC50 [2]: 548 nM
Compound: Cc1ccc(Nc2ncc(F)c(Nc3ccc4c(c3)CCC(=O)N4)n2)cc1S(N)(=O)=O [VII-21, N2-(3-Aminosulfonyl-4-methylphenyl)-N4-[3,4-dihydro-(1H)-quinolin-2-one-6-yl]-5-fluoro-2,4-pyrimidinediamine]

IC50 [1]: 1040 nM
Compound: Cc1ccc(Nc2ncc(F)c(Nc3ccc(N(C)C(=O)CC#N)cc3)n2)cc1S(N)(=O)=O [Compound I-87, N2-(3-Aminosulfonyl-4-methylphenyl)-N4-[4-(N-cyanoacetyl-N-methyl)aminophneyl]-5-fluoro-2,4-pyrimidinediamine]

IC50 [2]: 597 nM
Compound: CCCN(c1ccc(OC)c(Cl)c1)c1nc(Nc2cc(C)c(F)c(S(N)(=O)=O)c2)ncc1F [VI-23, N2-(3-Aminosulfonyl-4-fluoro-5-methylphenyl)-N4-(3-chloro-4-methoxyphenyl)-5-fluoro-N4-propyl-2,4-pyrimidinediamine]

IC50 [1]: 1480 nM
Compound: COC(=O)CN(c1ccc(OCc2cc(C)on2)cc1)c1nc(Nc2ccc(C)c(S(N)(=O)=O)c2)ncc1F [Compound I-227, N2-(3-Aminosulfonyl-4-methylphenyl)-5-fluoro-N4-methoxycarbonylmethyl-N4-[4-(5-methylisoxazol-3-yl)methyleneoxyphenyl]-2,4-pyrimidinediamine]

IC50 [1]: 395 nM
Compound: N2-(3-Aminocarbonyl-5-methylphenyl)-5-fluoro-N2-[4-(1-methylpyrazol-3-yl)amidophenyl)-2,4-pyrimidinediamine [II-19]

IC50 [2]: 18300 nM
Compound: COc1ccc(Nc2nc(Nc3ccncc3S(N)(=O)=O)ncc2F)cc1Cl [VI-31, N2-(3-Aminosulfonylpyrid-4-yl)-N4-(3-chloro-4-methoxyphenyl)-5-fluoro-2,4-pyrimidinediamine]

IC50 [4]: 866 nM
Compound: NS(=O)(=O)c1ccc(Nc2ncc(F)c(Nc3ccc(OCC(=O)N4CCOCC4)cc3)n2)cc1 [Compound I-210, N2-(4-Aminosulfonylphenyl)-5-fluoro-N4-[4-(2-morpholin-4-yl-2-oxo-ethoxy)phenyl]-2,4-pyrimidinediamine]

IC50 [3]: 1400 nM
Compound: CNS(=O)(=O)c1cc(Nc2ncc(F)c(Nc3ccc(C(=O)N4CCN(S(C)(=O)=O)CC4)cc3)n2)ccc1C [IX-31, 5-Fluoro-N2-[3-(N-methylaminosulfony)-4-methylphenyl]-5-fluoro-N4-[4-(1-methanesulfonyl-4-piperizinyl)carbonylphenyl]-2,4-pyrimidinediamine]

IC50 [3]: 1400 nM
Compound: CNS(=O)(=O)c1cc(Nc2ncc(F)c(Nc3ccc(C(=O)N4CCS(=O)(=O)CC4)cc3)n2)ccc1C [IX-39, N4-[4-(1,1-dioxo-4-thiomorpholinyl)carbonylphenyl]-5-Fluoro-N2-[3-(N-methylaminosulfony)-4-methylphenyl]-2,4-pyrimidinediamine]

IC50 [1]: 700 nM
Compound: Cc1cc(COc2ccc(N(C)c3nc(Nc4ccc(C)c(S(N)(=O)=O)c4)ncc3F)cc2)no1 [Compound I-225, N2-(3-Aminosulfonyl-4-methylphenyl)-5-fluoro-N4-methyl-N4-[4-(5-methylisoxazol-3-yl)methyleneoxyphenyl]-2,4-pyrimidinediamine]
